Assay results as given in ChEMBL document CHEMBL1201862, “PubChem BioAssay data set” (2004).
Active and inactive are the calls of the source.

Tests used:
Prothrombin = Prothrombin (Homo sapiens, UniProt P00734); assay: Thrombin 1536 HTS Dose Response Confirmation. [Related pubchem assays: 1046 (Thrombin 1536 HTS; hits were confirmed in this assay)]; format: functional
[1] = target: T1, Alkaline phosphatase, tissue-nonspecific isozyme (Homo sapiens, UniProt P05186); assay: potency against alkaline phosphatase TNAP – biochemical, luminescent, dose response, SAR follow-up (AID 1056)
T1 sequence (P05186 whole entry): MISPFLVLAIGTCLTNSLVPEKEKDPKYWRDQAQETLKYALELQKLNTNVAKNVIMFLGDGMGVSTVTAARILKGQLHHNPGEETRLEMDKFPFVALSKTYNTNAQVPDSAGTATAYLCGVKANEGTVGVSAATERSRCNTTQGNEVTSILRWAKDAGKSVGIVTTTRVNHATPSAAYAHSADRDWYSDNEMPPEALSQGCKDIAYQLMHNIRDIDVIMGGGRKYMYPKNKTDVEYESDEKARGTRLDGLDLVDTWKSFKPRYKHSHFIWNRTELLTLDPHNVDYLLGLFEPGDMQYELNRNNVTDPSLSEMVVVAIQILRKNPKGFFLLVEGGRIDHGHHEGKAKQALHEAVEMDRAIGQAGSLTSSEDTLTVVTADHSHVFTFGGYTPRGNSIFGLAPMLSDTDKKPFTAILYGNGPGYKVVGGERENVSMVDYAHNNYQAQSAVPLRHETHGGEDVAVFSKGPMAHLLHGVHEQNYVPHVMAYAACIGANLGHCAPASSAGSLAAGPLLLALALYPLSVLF

[2] = A cytotoxicity screen of small molecule inhibitors of the PhoP region in Salmonella typhi identified in the primary screen. [Related pubchem assays: 1850, 1864, 1985 ]; format: functional
[3] = THP-1 cell cytotoxicity, dose response, cytotoxicity control for non-replicating M. tuberculosis project (AID 489025); format: functional
[4] = target: T2, Calpain-2 catalytic subunit (Sus scrofa, UniProt P43367); assay: m-calpain protease blockers, concentration series – biochemical, fluorogenic peptide substrate, dose response (AID 1420); format: functional
T2 sequence (P43367 whole entry): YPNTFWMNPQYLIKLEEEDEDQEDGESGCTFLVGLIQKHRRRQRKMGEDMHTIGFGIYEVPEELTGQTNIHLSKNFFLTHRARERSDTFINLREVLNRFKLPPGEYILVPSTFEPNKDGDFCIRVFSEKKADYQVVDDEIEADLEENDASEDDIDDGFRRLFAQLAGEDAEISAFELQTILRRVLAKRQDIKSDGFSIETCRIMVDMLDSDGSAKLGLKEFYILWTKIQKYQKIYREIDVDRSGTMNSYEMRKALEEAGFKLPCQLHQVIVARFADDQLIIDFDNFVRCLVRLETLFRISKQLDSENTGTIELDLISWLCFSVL

[5] = target: G-protein coupled receptor 55 (Homo sapiens, UniProt Q9Y2T6); assay: inhibition of LPI-stimulated GPR55 beta-arrestin translocation – imaging, U2OS, beta-arrestin-GFP, LPI agonist, primary screen (AID 2013); format: functional;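 also: antagonist potency measured as reduced agonist-driven arrestin aggregation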
[6] = potency of ADAM10 substrate cleavage blockers – biochemical, QFRET, dose response (AID 743254);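 also: ADAM10 enzyme with the DM2 quenched FRET peptide as substrate; EDANS fluorescence gain as the protease cuts the substrate; inhibitor potency against ADAM10 proteolytic activity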
[7] = target: Disintegrin and metalloproteinase domain-containing protein 17 (Homo sapiens, UniProt P78536); assay: inhibition of ADAM17 substrate cleavage – biochemical, quenched FRET substrate, counter-screen for ADAM10 exosite inhibitor project, dose response (AID 743253)
[8] = viability of HCT116 lacking mutant beta-catenin – cell-based, human colon tumor, dose response (AID 1045); format: functional;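 also: HCT116 colon tumor cells with beta catenin knocked out; cells exposed to compound for 60 hours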
[9] = viability of PTEN-deleted HCT116 cells – cell-based, HCT116 PTEN knockout, dose response (AID 1047); format: functional;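 also: HCT116 colon tumor cells with PTEN knocked out; cells exposed to compound for 60 hours before readout; potency for loss of cell viability measured by luminescence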
[10] = NIH3T3 cell viability loss – ATP luminescence, mouse fibroblasts, counter-screen, dose response (AID 2010); format: functional, cell-based;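 also: cells exposed to compound for about 90 hours before reading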
[11] = Trypanosoma cruzi growth suppression in host cells – NIH3T3 host cells, beta-gal luminescence, confirmation (AID 2044); format: functional, cell-based;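 also: intracellular parasites grown in NIH/3T3 mouse fibroblasts as host cells; luminescent beta-galactosidase reporter signal from transgenic T. cruzi replicating inside host cells; inhibitors lower the luminescence signal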
[12] = target: Glyceraldehyde-3-phosphate dehydrogenase (Homo sapiens, UniProt P04406)
[13] = target: T3, Tyrosine-protein phosphatase non-receptor type 7 (Homo sapiens, UniProt P35236); assay: HePTP tyrosine phosphatase activity blockers – biochemical, absorbance, leukemia target, primary screen (AID 521); format: functional
T3 sequence (P35236 whole entry): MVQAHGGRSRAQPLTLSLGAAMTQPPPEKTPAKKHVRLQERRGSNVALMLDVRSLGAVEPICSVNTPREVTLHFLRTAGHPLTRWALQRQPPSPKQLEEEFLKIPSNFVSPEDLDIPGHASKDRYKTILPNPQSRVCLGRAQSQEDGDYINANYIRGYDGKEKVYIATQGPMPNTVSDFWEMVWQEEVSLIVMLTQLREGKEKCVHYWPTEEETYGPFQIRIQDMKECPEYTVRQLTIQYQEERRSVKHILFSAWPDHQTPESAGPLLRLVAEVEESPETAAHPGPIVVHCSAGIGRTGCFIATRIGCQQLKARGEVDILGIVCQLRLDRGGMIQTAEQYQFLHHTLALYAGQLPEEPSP

[14] = viability of uninfected HEp-2 cells – cell-based, HTS, cytotoxicity control for RSV inhibitor project, dose response (AID 2410); format: functional; settings: human respiratory syncytial virus
[15] = target: DNA dC->dU-editing enzyme APOBEC-3A (Homo sapiens, UniProt P31941); assay: Dose Response confirmation of small molecule APOBEC3A DNA Deaminase Inhibitors via a fluorescence-based single-stranded DNA deaminase assay. [Related pubchem assays (depositor defined):AID493011, AID493024]; format: functional
[16] = target: DNA dC->dU-editing enzyme APOBEC-3G (Homo sapiens, UniProt Q9HC16); format: functional;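 also: Dose-response counterscreen measuring inhibition of APOBEC3G DNA deaminase activity, run while confirming APOBEC3A inhibitors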
[17] = target: T4, Heat shock factor protein 1 (Mus musculus, UniProt P38532); assay: enhancement of HSF1-driven luciferase signal – cell-based, NIH3T3, luminescence, dose retest, confirmation (AID 435004); format: functional;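 also: stress induced by proteasome inhibitor MG132 added 30 min after compound; luciferase reporter driven by HSF1 response element in NIH3T3 cells; actives raise luminescence as potentiators of the MG132 stress response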
T4 sequence (P38532 whole entry): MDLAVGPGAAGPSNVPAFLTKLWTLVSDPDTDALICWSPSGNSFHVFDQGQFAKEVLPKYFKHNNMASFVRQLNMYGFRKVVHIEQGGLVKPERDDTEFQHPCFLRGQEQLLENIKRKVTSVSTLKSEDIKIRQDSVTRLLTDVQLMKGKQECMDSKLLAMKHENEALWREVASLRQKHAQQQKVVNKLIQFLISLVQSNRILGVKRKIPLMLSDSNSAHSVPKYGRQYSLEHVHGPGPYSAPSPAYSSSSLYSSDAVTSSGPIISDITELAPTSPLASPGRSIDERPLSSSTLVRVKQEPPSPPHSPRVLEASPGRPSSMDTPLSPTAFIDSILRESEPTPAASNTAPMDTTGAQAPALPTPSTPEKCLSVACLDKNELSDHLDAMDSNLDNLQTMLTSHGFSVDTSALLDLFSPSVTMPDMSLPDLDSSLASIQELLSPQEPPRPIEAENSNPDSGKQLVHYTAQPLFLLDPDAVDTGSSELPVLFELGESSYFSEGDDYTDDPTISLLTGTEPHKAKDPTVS

[18] = target: T5, Short transient receptor potential channel 4 (Mus musculus, UniProt Q9QUQ5); assay: block of DAMGO-driven TRPC4 calcium entry – cell-based, HEK293 TRPC4/mu-opioid, Fluo-4 calcium, dose response (AID 434942); format: functional;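 also: potency of inhibitors blocking the TRPC4 calcium response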
T5 sequence (Q9QUQ5 whole entry): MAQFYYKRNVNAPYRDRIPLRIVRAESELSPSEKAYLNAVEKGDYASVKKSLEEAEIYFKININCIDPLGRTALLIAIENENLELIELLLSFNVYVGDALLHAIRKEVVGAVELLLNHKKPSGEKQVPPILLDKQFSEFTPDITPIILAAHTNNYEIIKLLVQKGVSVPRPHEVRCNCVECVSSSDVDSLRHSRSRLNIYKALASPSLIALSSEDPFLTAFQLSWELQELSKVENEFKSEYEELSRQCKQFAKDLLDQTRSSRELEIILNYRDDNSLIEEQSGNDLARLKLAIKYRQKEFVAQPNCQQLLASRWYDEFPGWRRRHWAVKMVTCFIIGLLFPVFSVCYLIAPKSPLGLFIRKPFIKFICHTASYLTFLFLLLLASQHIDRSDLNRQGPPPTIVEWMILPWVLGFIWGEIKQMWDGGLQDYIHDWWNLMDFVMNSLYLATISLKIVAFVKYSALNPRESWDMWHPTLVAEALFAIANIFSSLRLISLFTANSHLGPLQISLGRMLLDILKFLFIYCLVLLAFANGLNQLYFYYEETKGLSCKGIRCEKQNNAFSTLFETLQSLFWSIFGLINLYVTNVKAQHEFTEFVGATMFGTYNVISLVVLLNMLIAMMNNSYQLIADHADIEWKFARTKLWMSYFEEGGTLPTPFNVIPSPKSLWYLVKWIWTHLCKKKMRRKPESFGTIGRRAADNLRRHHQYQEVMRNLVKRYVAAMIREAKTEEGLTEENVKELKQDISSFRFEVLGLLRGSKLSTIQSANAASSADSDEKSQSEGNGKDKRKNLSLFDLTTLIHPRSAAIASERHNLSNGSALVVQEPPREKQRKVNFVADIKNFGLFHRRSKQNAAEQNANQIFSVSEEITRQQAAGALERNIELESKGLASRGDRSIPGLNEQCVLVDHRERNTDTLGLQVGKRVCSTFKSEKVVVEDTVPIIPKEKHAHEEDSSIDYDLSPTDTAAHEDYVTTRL

[19] = target: FAD-linked sulfhydryl oxidase ALR (Homo sapiens, UniProt P55789); assay: ALR-catalysed DTT oxidation blockers – biochemical, H2O2 detection, luminescence, cherry-pick, dose response (AID 493248)
Sequence of FAD-linked sulfhydryl oxidase ALR (P55789 whole entry): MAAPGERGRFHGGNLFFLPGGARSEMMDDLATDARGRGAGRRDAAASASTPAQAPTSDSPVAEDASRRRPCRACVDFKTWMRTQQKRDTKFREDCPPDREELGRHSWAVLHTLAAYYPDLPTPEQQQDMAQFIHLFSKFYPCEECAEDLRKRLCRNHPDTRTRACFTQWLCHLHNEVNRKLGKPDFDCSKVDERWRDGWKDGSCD

Sequence of DNA dC->dU-editing enzyme APOBEC-3G (Q9HC16 whole entry): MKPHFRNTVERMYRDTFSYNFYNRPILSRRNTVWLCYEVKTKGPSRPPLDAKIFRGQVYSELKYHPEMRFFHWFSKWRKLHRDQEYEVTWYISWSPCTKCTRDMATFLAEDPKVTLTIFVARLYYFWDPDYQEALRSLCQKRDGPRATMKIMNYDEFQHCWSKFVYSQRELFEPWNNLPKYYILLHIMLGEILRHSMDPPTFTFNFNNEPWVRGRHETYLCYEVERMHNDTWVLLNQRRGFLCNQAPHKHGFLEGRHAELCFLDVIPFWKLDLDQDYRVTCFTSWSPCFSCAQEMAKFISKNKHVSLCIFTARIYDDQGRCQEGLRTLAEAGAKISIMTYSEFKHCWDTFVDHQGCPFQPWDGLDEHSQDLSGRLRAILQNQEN
Sequence of DNA dC->dU-editing enzyme APOBEC-3A (P31941 whole entry): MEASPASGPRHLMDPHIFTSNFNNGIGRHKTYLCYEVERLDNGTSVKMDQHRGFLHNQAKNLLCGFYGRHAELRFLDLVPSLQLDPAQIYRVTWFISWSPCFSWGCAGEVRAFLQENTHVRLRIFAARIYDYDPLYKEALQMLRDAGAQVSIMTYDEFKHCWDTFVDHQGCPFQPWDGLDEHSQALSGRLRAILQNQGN
Sequence of Glyceraldehyde-3-phosphate dehydrogenase (P04406 whole entry): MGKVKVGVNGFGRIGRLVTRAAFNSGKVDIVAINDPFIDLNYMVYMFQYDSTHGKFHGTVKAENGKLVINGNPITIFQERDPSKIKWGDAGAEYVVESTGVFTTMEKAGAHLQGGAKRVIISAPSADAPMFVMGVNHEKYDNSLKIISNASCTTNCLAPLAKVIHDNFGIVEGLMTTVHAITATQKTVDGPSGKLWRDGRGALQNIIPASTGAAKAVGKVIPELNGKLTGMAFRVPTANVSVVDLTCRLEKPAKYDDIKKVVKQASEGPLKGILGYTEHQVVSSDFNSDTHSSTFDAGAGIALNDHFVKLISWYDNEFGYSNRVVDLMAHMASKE
Sequence of G-protein coupled receptor 55 (Q9Y2T6 whole entry): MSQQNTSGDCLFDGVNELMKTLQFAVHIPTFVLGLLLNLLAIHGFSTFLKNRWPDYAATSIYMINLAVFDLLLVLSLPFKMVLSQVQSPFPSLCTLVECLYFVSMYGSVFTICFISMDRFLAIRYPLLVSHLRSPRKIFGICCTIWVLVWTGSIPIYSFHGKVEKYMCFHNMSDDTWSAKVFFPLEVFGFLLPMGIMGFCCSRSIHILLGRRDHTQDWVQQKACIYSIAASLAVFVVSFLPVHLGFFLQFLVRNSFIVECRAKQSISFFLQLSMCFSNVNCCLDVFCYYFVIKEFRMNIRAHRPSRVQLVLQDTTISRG
Sequence of Disintegrin and metalloproteinase domain-containing protein 17 (P78536 whole entry, the tested form may be a part): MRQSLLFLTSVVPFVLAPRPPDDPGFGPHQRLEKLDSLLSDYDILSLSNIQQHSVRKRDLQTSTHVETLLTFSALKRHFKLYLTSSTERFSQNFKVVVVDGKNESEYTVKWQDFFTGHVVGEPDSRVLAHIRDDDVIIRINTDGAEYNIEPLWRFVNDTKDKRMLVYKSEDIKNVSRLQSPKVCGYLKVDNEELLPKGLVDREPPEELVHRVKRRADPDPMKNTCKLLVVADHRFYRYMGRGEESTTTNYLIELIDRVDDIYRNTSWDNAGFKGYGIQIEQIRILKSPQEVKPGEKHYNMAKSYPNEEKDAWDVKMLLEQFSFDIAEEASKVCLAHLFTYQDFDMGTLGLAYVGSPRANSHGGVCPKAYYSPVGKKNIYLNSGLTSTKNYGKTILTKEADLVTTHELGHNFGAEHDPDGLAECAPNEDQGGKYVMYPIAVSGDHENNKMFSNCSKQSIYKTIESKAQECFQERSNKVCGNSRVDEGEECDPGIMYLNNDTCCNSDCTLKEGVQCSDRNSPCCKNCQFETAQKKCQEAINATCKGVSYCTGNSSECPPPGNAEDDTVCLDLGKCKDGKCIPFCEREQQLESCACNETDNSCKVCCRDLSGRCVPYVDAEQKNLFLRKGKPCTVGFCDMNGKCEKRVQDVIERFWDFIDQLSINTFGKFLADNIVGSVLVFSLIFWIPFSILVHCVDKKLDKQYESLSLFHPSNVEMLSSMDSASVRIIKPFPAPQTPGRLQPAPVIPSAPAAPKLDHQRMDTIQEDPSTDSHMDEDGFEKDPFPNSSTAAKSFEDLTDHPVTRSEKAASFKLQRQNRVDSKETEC

SMILES: O=C1CCC(C(=O)Nc2cccc3ccccc23)N1 (configuration not stated)
- IC50 (Prothrombin): > 50 µM (not active)

SMILES: CCOc1cc(S(=O)(=O)Nc2cccnc2)c(OCC)cc1C
- IC50 [1]: 2.61 µM (active)

SMILES: Cc1occc1C(=O)N/N=C/C=C/c1ccccc1
- EC50 [2]: > 50 µM (active)

SMILES: CC1=NN(C(=O)c2ccc(Cn3nc(C)c(Br)c3C)cc2)C(O)(C(F)(F)F)C1 (configuration not stated)
- CC50 [3]: 34 µM (active)

SMILES: S=c1[nH]nc(CSCc2ccccc2Cl)n1C1CCCCC1
- IC50 [4]: 11.1 µM (not active)
- IC50 [5]: 3.7 µM (active)

SMILES: Cc1cc(F)ccc1C(O)c1nc(-c2cccc(OCc3ccccc3)c2)c[nH]1 (configuration not stated)
- IC50 [6]: 13.9 µM (inactive)
- IC50 [7]: > 69.5 µM (inactive)

SMILES: COCCN(CCOC)S(=O)(=O)c1ccc(C(=O)Nc2nc3c(s2)CCc2ccccc2-3)cc1
- EC50 [8]: 13.1 µM (active)
- EC50 [9]: 8.49 µM (active)

SMILES: COc1cc(CNC2CCCC2)cc(Cl)c1OCc1ccccc1F
- EC50 [8]: 19.1 µM (active)
- EC50 [9]: 19.9 µM (active)
- EC50 [10]: > 60 µM (not active)
- EC50 [11]: 2.01 µM (active)

SMILES: O=S(=O)(Nc1ccccc1I)c1cnc2ccccc2c1
- IC50 [1]: > 10 µM (inactive)
- IC50 [12]: > 10 µM (inconclusive)

SMILES: CC(C)(C)n1nc2c(c1NC(=O)Cc1cccs1)CSC2
- EC50 [2]: > 50 µM (active)

SMILES: CCOc1ccccc1-n1c(SCC(=O)NC(C)(C)C)nnc1-c1ccoc1C
- IC50 [13]: > 100 µM (not active)

SMILES: C=CCC[C@@H](Cc1ccc(F)cc1)C(=O)OC[C@H](Cc1c[nH]c2ccccc12)NC(=O)[C@H](CC=C)CC(=O)N(CCO)Cc1ccccc1
- IC50 [6]: 5.38 µM (active)
- IC50 [7]: > 69.5 µM (inactive)

SMILES: COc1ccc(-c2nnc(SCC(=O)Nc3sc4c(c3C#N)CCCC4)n2-c2ccccc2)cc1
- EC50 [8]: 5.75 µM (active)
- EC50 [9]: 5.14 µM (active)
- CC50 [14]: 9.89 µM (active)

SMILES: CC(C)[N+](C)(C)CC(O)CN(c1ccccc1)c1ccccc1 (configuration not stated)
- IC50 [15]: 3.2 µM (active)
- IC50 [16]: 2.65 µM (active)

SMILES: c1ccc(-c2nn[nH]c2-c2ccccc2)cc1
- IC50 [13]: > 100 µM (not active)

SMILES: Nc1nc2c(s1)CCCCCCCCCC2
- IC50 [15]: 7.08 µM (active)
- IC50 [16]: 4.49 µM (active)

SMILES: CCCCSc1nnc(N)[nH]1
- IC50 [1]: > 100 µM (inactive)
- IC50 [12]: > 100 µM (not active)

SMILES: C=CCN1C(=O)C(C(C)CC)NC1=S (configuration not stated)
- IC50 (Prothrombin): > 50 µM (not active)

SMILES: C1=C(CCNCc2ccccc2)CCCC1
- EC50 [2]: > 50 µM (active)

SMILES: O=C(CC1(O)C(=O)Nc2ccc(Br)cc21)c1ccc2c(c1)OCO2 (configuration not stated)
- EC50 [2]: > 50 µM (active)
- EC50 [17]: > 260 µM (inactive)
- IC50 (Prothrombin): 2.3 µM (active)

SMILES: CCN1C(NCCc2c[nH]c3ccccc23)=N[C@@H](c2ccccc2)[C@H](C(=O)OC)[C@H]1C
- IC50 [15]: 6.29 µM (active)
- IC50 [16]: 8.65 µM (active)

SMILES: COc1ccc(NC(=O)CN2CCN(c3ccccc3F)CC2)cc1
- IC50 [13]: > 100 µM (not active)

SMILES: C=C(C)CN(CC)C(=O)CC1C(=O)NCCN1CC(C)(C)C (configuration not stated)
- IC50 (Prothrombin): > 50 µM (not active)

SMILES: C=C(c1ccc(O)cc1)c1ccc(O)cc1
- EC50 [18]: 3.76 µM (active)
- AC50 [19]: 205 nM (active)
- IC50 [5]: 1.75 µM (active)
